What all share (assay type): cell-based
The subject of one assay is IL-17F. The assay is described as follows: Cytokine assay: IL-17F production by human PBMC stimulated with PHA. To be noted: Homo sapiens, PBMC, IC50 class, read-out: IL-17F Inhib. As for the experimental part:
(§1) Cytokine Assay: Analysis of Proliferation of and Cytokine Production by Human PBMC Stimulated with PHA
(§2) Peripheral blood mononuclear cells (PBMC) from healthy human donors were purified using Accuspin™ System-Histopaque-1077 (Sigma) according to the protocol recommended by the manufacturer. Purified PBMC were then washed twice with phosphate-buffered saline (PBS) and resuspended in RPMI1640 culture medium supplemented with 10% dialyzed heat inactivated fetal calf serum, 1.5 mM L-glutamine, 100 U penicillin/ml, and […] (all from PAN Biotech, Aidenbach, Germany). For stimulation, PBMC were seeded at 1×10^5 cells/well, activated with 2 μg/ml phytohaemagglutinin (PHA, Sigma) and incubated with the test compounds for 48 hours. IL-17A, IL-17F and INF-γ were then determined in the culture supernatant using a Luminex BioPlex system, following the manufacturer's instructions (BioRad, Munich, Germany). For screening, compounds were used at 10, 1, 0.1 and 0.01 μM. To determine the IC50, compounds were titrated semilogarithmically.
(§3) Cytokines were determined in the aforementioned culture supernatant using the following methods: IL-17A was measured using the human homodimer IL-17A ELISA Ready Set Go Kit from eBioscience (Frankfurt, Germany); IL-17F using the human IL-17F ELI-Pair from Hölzel DiagnosticaGmBH (Köln, Germany); and IFN-γ using the OptEIA human IFN-g ELISA from BD Bioscience (Heidelberg, Germany), all following the manufacturer's instructions.

The test system of the next assay is IL-17A. The assay can be described thus: Cytokine assay: IL-17A production by human PBMC stimulated with PHA. To be noted: Homo sapiens, PBMC, IC50 class, read-out: IL-17A Inhib. As for the experimental part:
as §1, §2, §3

Another assay has as its system INF-γ. The assay is described as follows: Cytokine assay: INF-γ production by human PBMC stimulated with PHA. To be noted: Homo sapiens, PBMC, IC50 class, read-out: IFN-gamma Inhib. On the procedure:
as §1, §2, §3

SMILES strings stand for the structures. pIC50: −log10 of the molar value. Where only a bound is given, the exact number is not on record here.

For `Cc1c(-c2onc(-c3ccccc3Cl)c2-c2ccncn2)cnn1[C@H]1C[C@@](C)(O)C1` [Example 107, 3-{4-[3-(2-chlorophenyl)-4-(pyrimidin-4-yl)-1,2-oxazol-5-yl]-5-methyl-1H-pyrazol-1-yl}-1-methylcyclobutan-1-ol], the pIC50 in the assay with IL-17F was 6.30 to 7.30; in the assay on IL-17A, 6.30 to 7.30; in the assay with INF-γ it was over 7.30.
As for `Cc1c(-c2onc(-c3c(F)cccc3Cl)c2-c2ccncn2)cnn1[C@H]1C[C@@](C)(O)C1` [Example 108, 3-{4-[3-(2-chloro-6-fluorophenyl)-4-(pyrimidin-4-yl)-1,2-oxazol-5-yl]-5-methyl-1H-pyrazol-1-yl}-1-methylcyclobutan-1-ol], the pIC50 with IL-17F, with IL-17A and with INF-γ was 6.30 to 7.30 in each case.
Turning to `Cc1c(-c2onc(-c3ccccc3Cl)c2-c2cnccn2)cnn1[C@H]1C[C@@](C)(O)C1` [Example 109, 3-{4-[3-(2-chlorophenyl)-4-(pyrazin-2-yl)-1,2-oxazol-5-yl]-5-methyl-1H-pyrazol-1-yl}-1-methylcyclobutan-1-ol], the pIC50 in the assay on IL-17F was 5.30 to 6.30; in the assay with IL-17A, 5.30 to 6.30; with INF-γ it was 6.30 to 7.30.
Take `COc1ccccc1-c1noc(-c2cnn(C[C@@H](C)O)c2C(F)(F)F)c1-c1ncccn1` [Example 113, (2R)-1-{4-[3-(2-methoxyphenyl)-4-(pyrimidin-2-yl)-1,2-oxazol-5-yl]-5-(trifluoromethyl)-1H-pyrazol-1-yl}propan-2-ol]: the pIC50 in the assay with IL-17F was 6.30 to 7.30; in the assay with IL-17A it was 5.30 to 6.30; in the assay with INF-γ it was 5.30 to 6.30.
For `COc1ccccc1-c1noc(-c2cnn(CC(C)(C)O)c2C(F)(F)F)c1-c1ncccn1` [Example 114, 1-{4-[3-(2-methoxyphenyl)-4-(pyrimidin-2-yl)-1,2-oxazol-5-yl]-5-(trifluoromethyl)-1H-pyrazol-1-yl}-2-methylpropan-2-ol], the pIC50 in the assay with IL-17F is at most 5.30; with IL-17A, at most 5.30; in the assay with INF-γ, 5.30 to 6.30.
For `COc1ccccc1-c1noc(-c2cnn(C[C@@H](C)O)c2C(F)(F)F)c1-c1ccncn1` [Example 115, (2R)-1-{4-[3-(2-methoxyphenyl)-4-(pyrimidin-4-yl)-1,2-oxazol-5-yl]-5-(trifluoromethyl)-1H-pyrazol-1-yl}propan-2-ol], the pIC50 with IL-17F was 5.30 to 6.30; in the assay on IL-17A, 5.30 to 6.30; in the assay on INF-γ, 6.30 to 7.30.
`COc1ccccc1-c1noc(-c2cnn(CC(C)(C)O)c2C(F)(F)F)c1-c1ccncn1` [Example 116, 1-{4-[3-(2-methoxyphenyl)-4-(pyrimidin-4-yl)-1,2-oxazol-5-yl]-5-(trifluoromethyl)-1H-pyrazol-1-yl}-2-methylpropan-2-ol]: the pIC50 in the assay on IL-17F was at most 5.30; with IL-17A, at most 5.30; with INF-γ, 5.30 to 6.30.
As to `COc1cccc(-c2noc(-c3cnn(C[C@@H](C)O)c3C(F)(F)F)c2-c2ncccn2)c1Cl` [Example 117, (2R)-1-{4-[3-(2-chloro-3-methoxyphenyl)-4-(pyrimidin-2-yl)-1,2-oxazol-5-yl]-5-(trifluoromethyl)-1H-pyrazol-1-yl}propan-2-ol], the pIC50 was 5.30 to 6.30 in the assay with IL-17F, 5.30 to 6.30 with IL-17A and 6.30 to 7.30 in the assay on INF-γ.
With `COc1cccc(-c2noc(-c3cnn(C[C@@H](C)O)c3C(F)(F)F)c2-c2ccncn2)c1Cl` [Example 119, (2R)-1-{4-[3-(2-chloro-3-methoxyphenyl)-4-(pyrimidin-4-yl)-1,2-oxazol-5-yl]-5-(trifluoromethyl)-1H-pyrazol-1-yl}propan-2-ol], the pIC50 is 5.30 to 6.30 with IL-17F, 5.30 to 6.30 with IL-17A and 6.30 to 7.30 with INF-γ.
`COc1cccc(-c2noc(-c3cnn(CC(C)(C)O)c3C(F)(F)F)c2-c2ccncn2)c1Cl` [Example 120, 1-{4-[3-(2-chloro-3-methoxyphenyl)-4-(pyrimidin-4-yl)-1,2-oxazol-5-yl]-5-(trifluoromethyl)-1H-pyrazol-1-yl}-2-methylpropan-2-ol]: the pIC50 in the assay with IL-17F was at most 5.30; in the assay with IL-17A it was 5.30 to 6.30; with INF-γ, 5.30 to 6.30.
On to `CC(C)(O)CCn1ncc(-c2onc(-c3ccccc3Cl)c2-c2ncccn2)c1C(F)(F)F` [Example 122, 4-{4-[3-(2-chlorophenyl)-4-(pyrimidin-2-yl)-1,2-oxazol-5-yl]-5-(trifluoromethyl)-1H-pyrazol-1-yl}-2-methylbutan-2-ol], for which the pIC50 with IL-17F, in the assay on IL-17A and in the assay on INF-γ was over 7.30 each time.
As for `CC(C)(O)CCn1ncc(-c2onc(-c3cccc(O)c3Cl)c2-c2ncccn2)c1C(F)(F)F` [Example 129, 2-chloro-3-{5-[1-(3-hydroxy-3-methylbutyl)-5-(trifluoromethyl)-1H-pyrazol-4-yl]-4-(pyrimidin-2-yl)-1,2-oxazol-3-yl}phenol], the pIC50 is 6.30 to 7.30 in the assay with IL-17F, 6.30 to 7.30 in the assay on IL-17A and 5.30 to 6.30 in the assay with INF-γ.
In the case of `CN1CCN(CCOc2cccc(-c3noc(-c4cnn(CCC(C)(C)O)c4C(F)(F)F)c3-c3ncccn3)c2Cl)CC1` [Example 136, 4-[4-(3-{2-chloro-3-[2-(4-methylpiperazin-1-yl)ethoxy]phenyl}-4-(pyrimidin-2-yl)-1,2-oxazol-5-yl)-5-(trifluoromethyl)-1H-pyrazol-1-yl]-2-methylbutan-2-ol], the pIC50 in the assay with IL-17F, with IL-17A and in the assay on INF-γ was 6.30 to 7.30 throughout.
For the compound `CN(C)CCCOc1cccc(-c2noc(-c3cnn(CCC(C)(C)O)c3C(F)(F)F)c2-c2ncccn2)c1Cl` [Example 140, 4-[4-(3-{2-chloro-3-[3-(dimethylamino)propoxy]phenyl}-4-(pyrimidin-2-yl)-1,2-oxazol-5-yl)-5-(trifluoromethyl)-1H-pyrazol-1-yl]-2-methylbutan-2-ol], the pIC50 in the assay with IL-17F, in the assay with IL-17A and in the assay on INF-γ was 6.30 to 7.30 in each case.
As to `CC(C)(O)CCn1ncc(-c2onc(-c3cccc(OCCCN4CCCC4)c3Cl)c2-c2ncccn2)c1C(F)(F)F` [Example 142, 4-[4-(3-{2-chloro-3-[3-(pyrrolidin-1-yl)propoxy]phenyl}-4-(pyrimidin-2-yl)-1,2-oxazol-5-yl)-5-(trifluoromethyl)-1H-pyrazol-1-yl]-2-methylbutan-2-ol], the pIC50 with IL-17F, in the assay on IL-17A and in the assay with INF-γ was 6.30 to 7.30 in each case.
In the case of `CCN(CC)CCCOc1cccc(-c2noc(-c3cnn(CCC(C)(C)O)c3C(F)(F)F)c2-c2ncccn2)c1Cl` [Example 143, 4-[4-(3-{2-chloro-3-[3-(diethylamino)propoxy]phenyl}-4-(pyrimidin-2-yl)-1,2-oxazol-5-yl)-5-(trifluoromethyl)-1H-pyrazol-1-yl]-2-methylbutan-2-ol], the pIC50 in the assay on IL-17F, in the assay on IL-17A and in the assay on INF-γ was over 7.30 in each case.
Consider `COC(=O)c1c(-c2cccc(OCCN(C)C)c2Cl)noc1-c1cnn(C[C@H](C)O)c1C(F)(F)F` [Example 149, methyl 3-{2-chloro-3-[2-(dimethylamino)ethoxy]phenyl}-5-{1-[(2S)-2-hydroxypropyl]-5-(trifluoromethyl)-1H-pyrazol-4-yl}-1,2-oxazole-4-carboxylate], for which the pIC50 in the assay on IL-17F is 5.30 to 6.30; in the assay with IL-17A it was 6.30 to 7.30; in the assay with INF-γ, 6.30 to 7.30.

Source of the values: patent US11292788B2, “IL-17 and IFN-gamma inhibition for the treatment of autoimmune diseases and chronic inflammation” (Immunic AG, priority 2017, dated 2022).
